Tests used:
Type in all cases: biochemical
mouse MMP-8 = target: T1, mouse MMP-8 (Mus musculus, UniProt O70138); assay: In vitro mouse MMP-8 inhibition test
T1 construct: purchased R&D Systems 2904-MP
Text: (§1) The MMP-mediated amidolytic cleavage of a suitable peptide substrate leads to an increase in fluorescent light here too. The signal intensity of the fluorescent light is directly proportional to the enzyme activity. The active concentration of a test compound at which half the enzyme is inhibited (50% signal intensity of the fluorescent light) is reported as the IC50 value.
(§2) Recombinant mouse MMP-8 (from R&D Systems, 2904-MP) is chemically activated in accordance with the manufacturer's instructions using APMA. 1 μl of the test compound to be analysed (as a solution in DMSO, suitable concentrations, for example, 1 nM to 30 μM) is pipetted into 24 μl of activated enzyme (final concentration, for example, 2 nM) in reaction buffer (50 mM Tris/HCl pH 7.5, 10 mM CaCl2, 150 mM NaCl, 0.05% Brij®-35) in a white 384-hole microtiter plate (MTP). The enzymatic reaction is started by adding the intramolecularly quenched Mca-Lys-Pro-Leu-Gly-Leu-Dpa(Dnp)-Ala-Arg-NH2 substrate (final concentration, for example, 5 μM; R&D Systems, ES-010), so as to result in a total test volume of 50 μl. The course of the MMP-8 reaction is measured by measuring the fluorescence intensity (excitation 320 nm, emission 410 nm) over a suitable period of time (for example over 120 min at a temperature of 32° C.).

mouse MMP-3 = target: T2, mouse MMP-3 (Mus musculus, UniProt P28862); assay: In vitro mouse MMP-3 inhibition test
T2 construct: purchased R&D Systems 548-MP
T2 sequence (P28862 100-477): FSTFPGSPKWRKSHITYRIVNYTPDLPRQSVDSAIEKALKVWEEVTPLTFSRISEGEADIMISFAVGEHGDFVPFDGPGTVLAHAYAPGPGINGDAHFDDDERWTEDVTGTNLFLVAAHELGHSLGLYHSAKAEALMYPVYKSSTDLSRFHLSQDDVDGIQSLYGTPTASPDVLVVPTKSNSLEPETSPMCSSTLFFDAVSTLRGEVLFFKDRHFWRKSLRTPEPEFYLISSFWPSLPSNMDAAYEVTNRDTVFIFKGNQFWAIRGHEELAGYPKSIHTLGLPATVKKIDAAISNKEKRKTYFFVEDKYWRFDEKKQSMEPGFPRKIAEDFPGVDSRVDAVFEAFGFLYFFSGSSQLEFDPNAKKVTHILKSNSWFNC
Text: as §1
as §2, with “mouse MMP-3” for “mouse MMP-8”, “Systems, 548-MP)” for “Systems, 2904-MP)”, “example, 0.5” for “example, 2”, “quenched Mca-Arg-Pro-Lys-Pro-Val-Glu-Nval-Trp-Arg-Lys(Dnp)-NH2” for “quenched Mca-Lys-Pro-Leu-Gly-Leu-Dpa(Dnp)-Ala-Arg-NH2”, “Systems, ES-002),” for “Systems, ES-010),”, “the MMP-3” for “the MMP-8”

mouse MMP-2 = target: T3, mouse MMP-2 (Mus musculus, UniProt P33434); assay: In vitro mouse MMP-2 inhibition test
T3 construct: purchased R&D Systems 924-MP
T3 sequence (P33434 110-662): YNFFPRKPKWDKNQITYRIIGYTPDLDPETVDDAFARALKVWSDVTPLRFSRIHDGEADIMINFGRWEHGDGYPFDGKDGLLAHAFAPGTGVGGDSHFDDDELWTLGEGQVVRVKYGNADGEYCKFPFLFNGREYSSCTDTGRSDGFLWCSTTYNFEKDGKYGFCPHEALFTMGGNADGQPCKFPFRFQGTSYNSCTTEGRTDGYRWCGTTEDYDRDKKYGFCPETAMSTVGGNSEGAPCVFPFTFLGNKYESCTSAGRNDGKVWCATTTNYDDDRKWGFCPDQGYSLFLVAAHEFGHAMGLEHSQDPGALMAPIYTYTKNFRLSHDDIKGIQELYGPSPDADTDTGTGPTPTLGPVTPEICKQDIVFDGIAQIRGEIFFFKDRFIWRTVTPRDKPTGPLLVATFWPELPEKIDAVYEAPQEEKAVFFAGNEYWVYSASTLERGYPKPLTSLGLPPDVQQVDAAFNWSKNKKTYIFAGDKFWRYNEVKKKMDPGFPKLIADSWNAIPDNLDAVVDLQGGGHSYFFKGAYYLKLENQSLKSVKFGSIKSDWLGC
Text: as §1
Recombinant mouse MMP-2 (from R&D Systems, 924-MP) is chemically activated in accordance with the manufacturer's instructions using APMA. 1 μl of the test compound to be analysed (as a solution in DMSO, suitable concentrations, for example, 1 nM to 30 μM) is pipetted into 24 μl of activated enzyme (final concentration, for example, 0.1 nM) in reaction buffer (50 mM Tris/HCl pH 7.5, 10 mM CaCl2, 150 mM NaCl, 0.05% Brij®-35) in a white 384-hole microtiter plate (MTP). The enzymatic reaction is started by adding the intramolecularly quenched Mca-Pro-Leu-Gly-Leu-Dpa(Dnp)-Ala-Arg-NH2 substrate (final concentration, for example, 10 μM; R&D Systems, ES-001), so as to result in a total test volume of 50 The course of the MMP-2 reaction is measured by measuring the fluorescence intensity (excitation 320 nm, emission 410 nm) over a suitable period of time (for example over 120 min at a temperature of 32° C.).

mouse MMP-7 = target: T4, mouse MMP-7 (Mus musculus, UniProt Q10738); assay: In vitro mouse MMP-7 inhibition test
T4 construct: purchased R&D Systems 2967-MP
T4 sequence (Q10738 95-264): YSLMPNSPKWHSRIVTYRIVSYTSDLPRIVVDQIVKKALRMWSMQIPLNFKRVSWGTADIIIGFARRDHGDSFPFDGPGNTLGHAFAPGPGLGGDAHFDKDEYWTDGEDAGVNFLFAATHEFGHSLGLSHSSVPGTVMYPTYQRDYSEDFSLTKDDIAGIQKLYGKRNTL
Text: as §1
as §2, with “mouse MMP-7” for “mouse MMP-8”, “Systems, 2967-MP)” for “Systems, 2904-MP)”, “example, 0.5” for “example, 2”, “the MMP-7” for “the MMP-8”

T1 sequence (O70138 101-465): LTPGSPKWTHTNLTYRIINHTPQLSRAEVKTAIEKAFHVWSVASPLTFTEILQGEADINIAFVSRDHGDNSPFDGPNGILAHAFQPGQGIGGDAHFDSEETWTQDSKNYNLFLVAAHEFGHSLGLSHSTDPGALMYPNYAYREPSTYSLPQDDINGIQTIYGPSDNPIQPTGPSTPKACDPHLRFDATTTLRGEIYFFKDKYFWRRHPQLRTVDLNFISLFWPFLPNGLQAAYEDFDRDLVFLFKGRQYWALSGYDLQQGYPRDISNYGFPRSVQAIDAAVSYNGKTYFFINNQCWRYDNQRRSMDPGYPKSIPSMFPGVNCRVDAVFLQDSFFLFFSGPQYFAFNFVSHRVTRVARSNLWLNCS

Row | SMILES | IC50 (mouse MMP-8) [nM] | IC50 (mouse MMP-3) [nM] | IC50 (mouse MMP-2) [nM] | IC50 (mouse MMP-7) [nM]
1 | O=C(O)[C@H]1[C@H](Cn2nnc3ccccc3c2=O)CC[C@@H]1C(=O)c1ccc(OCc2ccc(Cl)c(Cl)c2)cc1 (racemic) [Example 3, (+/−)-(1RS,2RS,5SR)-2-{4-[(3,4-Dichlorobenzyl)oxy]benzoyl}-5-[(4-oxo-1,2,3-benzotriazin-3(4H)-yl)methyl]cyclopentanecarboxylic acid] | 810 | 1900 | 290 | 430
2 | Cc1ccc2nnn(C[C@H]3CC[C@@H](C(=O)c4ccc(OCc5ccccc5)cc4)[C@@H]3C(=O)O)c(=O)c2c1 (single isomer, unassigned) [Example 92, (+)-(1RS,2RS,5SR)-2-[4-(Benzyloxy)benzoyl]-5-[(6-methyl-4-oxo-1,2,3-benzotriazin-3(4H)-yl)methyl]cyclopentanecarboxylic acid] | 16 | 200 | 57 | 18
3 | Cc1ccc2nnn(C[C@H]3CC[C@@H](C(=O)c4ccc(OCc5cccc(Cl)c5)cc4)[C@@H]3C(=O)O)c(=O)c2c1 (single isomer, unassigned) [Example 104, (+)-(1RS,2RS,5SR)-2-{4-[(3-Chlorobenzyl)oxy]benzoyl}-5-[(6-methyl-4-oxo-1,2,3-benzotriazin-3(4H)-yl)methyl]cyclopentanecarboxylic acid] | 130 | 490 | 290 | 20
4 | CCCCCCOc1ccc(C(=O)[C@@H]2CC[C@H](Cn3nnc4ccc(C)cc4c3=O)[C@H]2C(=O)O)cc1 (single isomer, unassigned) [Example 121, (+)-(1RS,2RS,5SR)-2-[4-(Hexyloxy)benzoyl]-5-[(6-methyl-4-oxo-1,2,3-benzotriazin-3(4H)-yl)methyl]cyclopentanecarboxylic acid] | 120 | 2700 | 420 | 100
5 | O=C(O)[C@H]1[C@H](Cn2nnc3ccccc3c2=O)CC[C@@H]1C(=O)c1ccc(OCC2CCCC2)cc1 (racemic) [Example 4, (+/−)-(1RS,2RS,5SR)-2-[4-(Cyclopentylmethoxy)benzoyl]-5-[(4-oxo-1,2,3-benzotriazin-3(4H)-yl)methyl]cyclopentanecarboxylic acid] | 42 | 1300 | 100 | 160
6 | O=C(O)[C@@H]1[C@@H](Cn2nnc3ccc(C(F)(F)F)cc3c2=O)CC[C@H]1C(=O)c1ccc(OCc2cccc(Cl)c2)cc1 (single isomer, unassigned) [Example 23, (+)-(1RS,2RS,5SR)-2-{4-[(3-Chlorobenzyl)oxy]benzoyl}-5-{[4-oxo-6-(trifluoromethyl)-1,2,3-benzotriazin-3(4H)-yl]methyl}cyclopentanecarboxylic acid] | 300 | 8000 | 2400 | 69
7 | O=C(O)[C@H]1[C@H](Cn2nnc3ccc(C(F)(F)F)cc3c2=O)CC[C@@H]1C(=O)c1ccc(OCc2ccccc2)cc1 (racemic) [Example 11, (+/−)-(1RS,2RS,5SR)-2-[4-(Benzyloxy)benzoyl]-5-{[4-oxo-6-(trifluoromethyl)-1,2,3-benzotriazin-3(4H)-yl]methyl}cyclopentanecarboxylic acid] | 18 | 590 | 250 | 23
8 | O=C(O)[C@@H]1[C@@H](Cn2nnc3ccc(C(F)(F)F)cc3c2=O)CC[C@H]1C(=O)c1ccc(SCc2ccc(Cl)c(Cl)c2)cc1 (single isomer, unassigned) [Example 80, (+)-(1RS,2RS,5SR)-2-{4-[(3,4-Dichlorobenzyl)sulphanyl]benzoyl}-5-{[4-oxo-6-(trifluoromethyl)-1,2,3-benzotriazin-3(4H)-yl]methyl}cyclopentanecarboxylic acid] | 130 | 2500 | 1500 | 130
